Laboratory results reported in the NIST ThermoML archive (doi:10.1016/j.tca.2009.06.012).
± gives the expanded uncertainty stated by the source.

How the values were obtained:
[1] = Crystal
[2] = Molar enthalpy of transition or fusion; conditions: Crystal; DSC

Structure (SMILES) | Normal melting temperature ([1]; visual observation) [°C] | Molar enthalpy of transition or fusion [2] [kcal/mol] | Normal melting temperature ([1]; DTA) [°C]
Brc1ccc(-c2ccc(Br)cc2)cc1 [4,4'-dibromo-1,1'-biphenyl] | 167.50 ± 0.5 | 6.78 ± 0.203 | 
N#CCCC#N [butanedinitrile] |  | 0.884 ± 0.0765 | 56.50 ± 0.5
